From article PMC10545790
Values after ≈ are worked out from the molar mass of the structure shown. Values joined by “and” are separate entries in the source; they are usually repeats but may differ in a detail not shown here. Equal values may be shown once. “Also recorded” adds a separate entry of the source. Read-outs that look alike come from different tables or passages of the source.

Tests used:
[1] = biological target: ABL1 kinase (Homo sapiens, UniProt P00519); conditions: for Luminescence, Raw Data (LUM): ADP-Glo
[2] = Kinetic solubility in phosphate-buffered saline, pH 7.4; conditions: 25 °C, pH 7.4, aqueous buffer, kinetic from dmso stock
[3] = physchem; conditions: pH 7.4, logD (7.4): experimental distribution coefficient in n-octanol/phosphate-buffered saline
[4] = test system: human liver microsomes; experiment: Metabolic stability in human liver microsomes; conditions: human liver microsomes
[5] = Metabolic stability in human liver microsomes; conditions: both, human, liver microsomes (pooled)

ABL1 kinase, sequence (P00519 whole entry): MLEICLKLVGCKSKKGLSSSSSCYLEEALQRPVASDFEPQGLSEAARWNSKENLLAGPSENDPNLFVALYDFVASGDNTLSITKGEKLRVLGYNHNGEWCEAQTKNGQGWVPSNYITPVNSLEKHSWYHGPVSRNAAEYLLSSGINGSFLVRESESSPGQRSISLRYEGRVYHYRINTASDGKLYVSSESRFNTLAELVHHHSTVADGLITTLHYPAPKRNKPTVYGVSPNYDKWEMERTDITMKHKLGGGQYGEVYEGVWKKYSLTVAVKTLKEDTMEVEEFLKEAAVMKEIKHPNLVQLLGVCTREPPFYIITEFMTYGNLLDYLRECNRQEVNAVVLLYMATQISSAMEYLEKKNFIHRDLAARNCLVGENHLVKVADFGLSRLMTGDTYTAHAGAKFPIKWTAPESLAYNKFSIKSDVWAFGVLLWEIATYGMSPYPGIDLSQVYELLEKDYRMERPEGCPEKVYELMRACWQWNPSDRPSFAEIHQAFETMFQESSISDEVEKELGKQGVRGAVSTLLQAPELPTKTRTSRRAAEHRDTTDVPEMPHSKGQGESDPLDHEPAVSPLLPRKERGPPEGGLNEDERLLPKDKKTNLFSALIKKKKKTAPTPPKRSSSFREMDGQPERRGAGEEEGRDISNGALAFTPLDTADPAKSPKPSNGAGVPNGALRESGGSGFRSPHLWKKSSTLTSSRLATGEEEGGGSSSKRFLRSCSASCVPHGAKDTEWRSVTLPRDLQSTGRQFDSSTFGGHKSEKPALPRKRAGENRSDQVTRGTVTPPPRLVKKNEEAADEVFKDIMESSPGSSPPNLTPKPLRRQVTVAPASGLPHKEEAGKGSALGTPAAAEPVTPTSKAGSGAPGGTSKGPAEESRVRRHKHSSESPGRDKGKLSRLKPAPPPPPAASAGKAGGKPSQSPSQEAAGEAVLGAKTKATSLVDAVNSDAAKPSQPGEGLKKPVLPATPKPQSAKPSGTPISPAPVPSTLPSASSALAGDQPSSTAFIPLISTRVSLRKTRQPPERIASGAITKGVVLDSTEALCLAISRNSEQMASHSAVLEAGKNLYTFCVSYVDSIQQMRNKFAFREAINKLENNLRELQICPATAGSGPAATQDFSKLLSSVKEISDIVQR

In the case of Cc1ccc(NC(=O)C23CCC(CN4CCN(C)CC4)(CC2)CC3)cc1Nc1nccc(-c2cccnc2)n1 [Compound 86], the “inhibitory effect on the catalytic activity of ABL1 kinase (in words)” value ([1]; ADP-Glo Kinase Assay, 12 concentration points) is reported as “did not observe any significant inhibitory effect; also recorded: inactive”, the “Luminescence, Raw Data (LUM)” value ([1]; 1st run, plate ABL1_CpdsTitr_Read1, single wells, compound 15 nM) is reported as 2281 and 2169 and the “Luminescence, Raw Data (LUM)” value ([1]; 1st run, plate ABL1_CpdsTitr_Read1, single wells, compound 29 nM) is reported as 2495 and 2464. The “Luminescence, Raw Data (LUM)” value ([1]; 1st run, plate ABL1_CpdsTitr_Read1, single wells, compound 59 nM) was 2134 and 2384, the “Luminescence, Raw Data (LUM)” value ([1]; 1st run, plate ABL1_CpdsTitr_Read1, single wells, compound 117 nM) was 2291 and 2227 and the “Luminescence, Raw Data (LUM)” value ([1]; 1st run, plate ABL1_CpdsTitr_Read1, single wells, compound 234 nM) was 1059 and 1099. The “Luminescence, Raw Data (LUM)” value ([1]; 1st run, plate ABL1_CpdsTitr_Read1, single wells, compound 469 nM) was 1247 and 1531, the “Luminescence, Raw Data (LUM)” value ([1]; 1st run, plate ABL1_CpdsTitr_Read1, single wells, compound 938 nM) was 1347 and 1294 and the “Luminescence, Raw Data (LUM)” value ([1]; 1st run, plate ABL1_CpdsTitr_Read1, single wells, compound 1500 nM) was 981 and 1352. For the same molecule, the “Luminescence, Raw Data (LUM)” value ([1]; 1st run, plate ABL1_CpdsTitr_Read1, single wells, compound 1875 nM) was 1222 and 1248, the “Luminescence, Raw Data (LUM)” value ([1]; 1st run, plate ABL1_CpdsTitr_Read1, single wells, compound 3000 nM) was 1174 and 1245 and the “Luminescence, Raw Data (LUM)” value ([1]; 1st run, plate ABL1_CpdsTitr_Read1, single wells, compound 3750 nM) was 1755 and 1091. The “Luminescence, Raw Data (LUM)” value ([1]; 1st run, plate ABL1_CpdsTitr_Read1, single wells, compound 7500 nM) was 1238 and 1673, the “Luminescence, Raw Data (LUM)” value ([1]; 2nd run, plate ABL1_CpdsTitr2_Read1, single wells, compound 15 nM) was 4011 and 3702 and 3072 and 2792 and the “Luminescence, Raw Data (LUM)” value ([1]; 2nd run, plate ABL1_CpdsTitr2_Read1, single wells, compound 59 nM) was 6124 and 5895 and 5335 and 5300. The “Luminescence, Raw Data (LUM)” value ([1]; 2nd run, plate ABL1_CpdsTitr2_Read1, single wells, compound 117 nM) was 6960 and 7005 and 6427 and 6079, the “Luminescence, Raw Data (LUM)” value ([1]; 2nd run, plate ABL1_CpdsTitr2_Read1, single wells, compound 234 nM) was 5660 and 5387 and 5152 and 5142 and the “Luminescence, Raw Data (LUM)” value ([1]; 2nd run, plate ABL1_CpdsTitr2_Read1, single wells, compound 469 nM) was 5734 and 5920 and 6125 and 5475. For the same molecule, the “Luminescence, Raw Data (LUM)” value ([1]; 2nd run, plate ABL1_CpdsTitr2_Read1, single wells, compound 938 nM) was 6593 and 6264 and 5955 and 5731, the “Luminescence, Raw Data (LUM)” value ([1]; 2nd run, plate ABL1_CpdsTitr2_Read1, single wells, compound 1500 nM) was 5936 and 5810 and 4992 and 5316 and the “Luminescence, Raw Data (LUM)” value ([1]; 2nd run, plate ABL1_CpdsTitr2_Read1, single wells, compound 1875 nM) was 6498 and 6064 and 6232 and 5788. The “Luminescence, Raw Data (LUM)” value ([1]; 2nd run, plate ABL1_CpdsTitr2_Read1, single wells, compound 3000 nM) was 4358 and 4452 and 3565 and 4254, the “Luminescence, Raw Data (LUM)” value ([1]; 2nd run, plate ABL1_CpdsTitr2_Read1, single wells, compound 3750 nM) was 5848 and 6030 and 5487 and 5693 and the “Luminescence, Raw Data (LUM)” value ([1]; 2nd run, plate ABL1_CpdsTitr2_Read1, single wells, compound 7500 nM) was 5593 and 5845 and 6001 and 5417. It also gave a solubility kinetic at 2 h [2] of 113 µM (≈ 59.4 µg/mL), a logD [3] of 2.7 and a CLint [4] of 16. For the same molecule, the “t1/2: half-time of a metabolic decomposition” value ([4]; 2 μM compound, NADPH, 37 °C) was about 1.785 h, the k el at 2 µM ([5]; pH 7.4) was about 0.0001 s⁻¹ and the microsomal CLint at 2 µM ([5]; pH 7.4) was 16 µL/min/mg. The remaining at 40 min, 2 µM ([5]; pH 7.4, % Remaining without cofactor, Mean of 2, human liver microsomes, NADPH-cofactor system substituted with phosphate buffer) was 106%, the remaining at 7 min, 2 µM ([5]; pH 7.4, % Remaining, Mean of 2, human liver microsomes with NADPH, 7 min) was 100% and the remaining at 0.25 h, 2 µM ([5]; pH 7.4, % Remaining, Mean of 2, human liver microsomes with NADPH, 15 min) was 96%. For the same molecule, the remaining at 25 min, 2 µM ([5]; pH 7.4, % Remaining, Mean of 2, human liver microsomes with NADPH, 25 min) was 81%, the remaining at 40 min, 2 µM ([5]; pH 7.4, % Remaining, Mean of 2, human liver microsomes with NADPH) was 81% and the half-life at 2 µM ([5]; pH 7.4, t1/2: half-time of a metabolic decomposition, human liver microsomes, 2 μM compound, NADPH, 37 °C) was 1.78 h.
